Source: ChEMBL document CHEMBL1125839, “Synthesis and pharmacological evaluation of ether and related analogues of delta 8-, delta 9-, and delta 9,11-tetrahydrocannabinol” (J Med Chem, 1991)

What was measured:
[1] = test system: Mus musculus; test: The compound was tested in vivo for tail-flick latency in mice; type: functional
[2] = test system: Mus musculus; test: The compound was tested in vivo for ring immobility in mice; type: functional
[3] = test system: Mus musculus; test: The compound was tested in vivo for locomotor activity in mice; type: functional
[4] = test system: Mus musculus; test: The compound was tested in vivo for hypothermic activity in mice; type: functional
[5] = biological target: T1, Cannabinoid receptor (Rattus norvegicus, UniProt Q9QZN9+P20272); test: The compound was tested in vitro for binding activity against THC cannabinoid receptor site, using 3H-CP-55940 as the radioligand.; type: protein assay
[6] = biological target: T1, Cannabinoid receptor; test: The compound was tested in vitro for binding activity against THC cannabinoid receptor site, using 3H-CP-55940 as the radioligand; type: protein assay

With `C=C1CC[C@@H]2[C@@H](C1)c1c(O)cc(CCCCC)cc1OC2(C)C` the MPE50 [1] was 5.4 mg/kg, the ED50 [2] was 24 mg/kg and the ED50 [3] was 15 mg/kg. For the same compound, the ED50 [4] was 56 mg/kg.
`CCCCCc1cc(OCCN2CCOCC2)c2c(c1)OC(C)(C)[C@@H]1CC=C(C)C[C@@H]21` showed an MPE50 [1] of over 100 mg/kg, an ED50 [2] of 118 mg/kg and an IC50 [5] of 4.3 µM. The ED50 [3] was over 100 mg/kg and the ED50 [4] was over 100 mg/kg.
Compound `CCCCCc1cc(OC)c2c(c1)OC(C)(C)[C@@H]1CCC(C)=C[C@@H]21` has an MPE50 [1] of 116 mg/kg, an IC50 [6] of 10 µM and an ED50 [2] of 17 mg/kg. It also gave an ED50 [3] of over 100 mg/kg and an ED50 [4] of 267 mg/kg.
`CCCCCc1cc(OC)c2c(c1)OC(C)(C)[C@@H]1CC=C(C)C[C@@H]21` gave an MPE50 [1] of 33 mg/kg, an IC50 [6] of 3.2 µM and an ED50 [2] of over 100 mg/kg. The ED50 [3] was over 100 mg/kg and the ED50 [4] was over 100 mg/kg.
For `C=C1CC[C@@H]2[C@@H](C1)c1c(O)cc(CCC)cc1OC2(C)C`, the MPE50 [1] was 15 mg/kg, the IC50 [6] was 1.4 µM and the ED50 [2] was over 30 mg/kg. For the same compound, the ED50 [3] was 20 mg/kg and the ED50 [4] was over 30 mg/kg.
Work on `C=C1C[C@H]2c3c(O)cc(CCCCC)cc3OC(C)(C)[C@@H]2C[C@H]1O` yielded an MPE50 [1] of 25 mg/kg, an IC50 [6] of 1.2 µM and an ED50 [2] of 63 mg/kg. It also gave an ED50 [3] of 20 mg/kg and an ED50 [4] of 50 mg/kg.
In the case of `CCCCCc1cc(O)c2c(c1)OC(C)(C)[C@@H]1CC=C(C)C[C@@H]21` [DELTA-8-TETRAHYDROCANNABINOL], the MPE50 [1] is reported as 1.5 mg/kg, the ED50 [2] is reported as 5.2 mg/kg and the ED50 [3] is reported as 1.9 mg/kg.
`CCCCCc1cc(O)c2c(c1)OC(C)(C)[C@@H]1CCC(C)=C[C@@H]21` [DRONABINOL] showed an MPE50 [1] of 1.4 mg/kg, an ED50 [2] of 1.5 mg/kg and an ED50 [3] of 1 mg/kg. The ED50 [4] was 1.4 mg/kg.
